Tests used:
[1] = test system: Myocardial Ischemia Rat Model; test: Determination of infarct size by TTC staining; format: in vivo; settings: compared to the infarction group
Procedure: 60 rats were randomized into 6 groups: (i) sham group (Sham), n=10, (left anterior descending (LAD) coronary arteries of the rats were only laid upon sutures without ligation, and 0.5% Tween normal saline was injected intraperitoneally); (ii) infarction group (AMI), n=10, (LAD coronary arteries of the rats were ligated before 0.5% Tween normal saline was injected intraperitoneally); (iii) nobiletin group of low dosage (AMI+NOB-L, n=10; LAD coronary arteries of the rats were ligated before 7.5 mg/kg nobiletin was injected intraperitoneally); (v) nobiletin group of medium dosage (AMI+NOB-M), n=10, (LAD coronary arteries of the rats were ligated before 15 mg/kg nobiletin was injected intraperitoneally); (vi) nobiletin group of high dosage (AMI+NOB-H), n=10, (LAD coronary arteries of the rats were ligated before 30 mg/kg nobiletin was injected intraperitoneally); (vii) enalapril group (AMI+Enalapril), n=10, (LAD coronary arteries of the rats were ligated before 10 mg/kg enalapril was given intragastrically); echocardiograms were taken after the 21-day experiment. Male SD rats were weighed and then anaesthetized by intraperitoneal injections of 10% chloral hydrate (300 mg/kg). The rats were fixed on a table lying on their back, each connected with an electrocardiography and 2-lead electrocardiograms (ECGs) were recorded. The rats were inserted with trachea cannulas and artificially ventilated with a ventilator (positive airway pressure, frequency: 70 times/min, Ti/(I:E)=5:4, VT: about 15 ml/kg). Sterilized the left parasternal skin on the third and forth intercostals regions, cut the skin and separated muscle layers trough blunt dissection, opened the thorax, then cut the pericardium to expose the left ventricle and the left auricle, the left ventricle coronary artery was seen descending from the middle of the left auricle to the anterior wall of the left ventricle (see FIG. 1). Using left coronary artery as a reference, between left auricle and pulmonary conus arteriosus, the left anterior descending (LAD) coronary arteries of the rats were ligated by NO. 6-0 sutures. ST segments rose in 2-lead electrocardiogram of the rat after LAD ligation (see FIG. 2), and myocardial ischemia symptoms such as the distal myocardial tissues turned pale after LAD ligation acted as an index of whether the ligation worked (see FIG. 3). Sham-treated rats underwent the same surgical procedure without the ligation of LAD coronary artery. […] When myocardial infarction occurs for some time, dehydrogenases in the cells were released and lost due to cell membrane damages. Because TTC is not deoxidized into a colored form, infarcted myocardium cannot be stained. […] (2) […]: Removed atriums and right ventricles, restored left ventricles were weighed and recorded. […] Weighed and recorded each slices. […]

[2] = test system: Myocardial Ischemia Rat Model; test: Echocardiography in myocardial ischemia rat model (LAD ligation), effect of nobiletin on ventricle; format: in vivo; settings: 21-day experiment, compared to the infarction group
[3] = test system: H9C2 cells; test: Apoptosis detection by Annexin V/PI staining in cardiomyocytes subjected to oxygen-glucose deprivation (OGD); format: cell-based; settings: H9C2 cells with OGD treatment, 5, 10, 20, 40, 80 μM nobiletin, dose-dependent manner, versus OGD control
Procedure: In vitro, H9C2 cells with OGD treatment were used to model myocardial ischemia. OGD treatment: the cells were cultured and subjected to OGD when the density of the cells reached to 80%-90%. Collected the OGD-treated cells from the medium and rinsed trice with glucose-free EBSS, after that cultured the cells in the same medium at 37° C. in an anoxia chamber saturated with 94% N2/5% CO2/1% O2 for a preset time.
After previous procedures, the cells were digested with 0.25% trypsin and collected to stain with both fluorescein isothiocyanate (FITC) labeled […] (Annexin V-FITC) and PI (according to the manufacturer's protocol of Annexin V-FITC kits). Flow cytometry detection was carried out immediately under an excitation wavelength of […] to detect 1×10^4 cells. PI emits light of a wavelength about 623 nm (red fluorescence) while FITC emits light of about 520 nm (green fluorescence). Analyzed the detection data by CELLQEST Software and the results were shown in scatter plots (see FIG. 9A-9F) and statistics (see FIG. 10).

[4] = enalapril group, 10 mg/kg intragastrically
[5] = AMI+Enalapril, 10 mg/kg intragastrically
[6] = nobiletin groups (7.5, 15, 30 mg/kg intraperitoneally)
[7] = AMI+NOB-H, 30 mg/kg intraperitoneally
[8] = AMI+NOB-M, 15 mg/kg intraperitoneally

Row | SMILES | infarct area percentages (FIG. 8) [1, 4] | white infarct areas in TTC-stained myocardium (FIG. 7) [1, 4] | left ventricular ejection fraction (LVEF) [2, 5] | left ventricular fractional shortening (LVFS) [2, 5] | rise of left ventricular internal dimension, diastolic (LVIDD) [2, 5] | rise of left ventricular internal dimension, systolic (LVIDS) [2, 5] | apoptosis resulting from OGD [3] | infarct area percentages (FIG. 8) [1, 6] | white infarct areas in TTC-stained myocardium (FIG. 7) [1, 6] | left ventricular ejection fraction (LVEF) [2, 7] | left ventricular fractional shortening (LVFS) [2, 7] | rise of left ventricular internal dimension, diastolic (LVIDD) [2, 7] | rise of left ventricular internal dimension, systolic (LVIDS) [2, 7] | left ventricular ejection fraction (LVEF) [2, 8] | left ventricular fractional shortening (LVFS) [2, 8] | rise of left ventricular internal dimension, diastolic (LVIDD) [2, 8] | rise of left ventricular internal dimension, systolic (LVIDS) [2, 8]
1 | CCOC(=O)[C@H](CCc1ccccc1)N[C@@H](C)C(=O)N1CCC[C@H]1C(=O)O [enalapril, reference compound] | lower | smaller | significantly increased | significantly increased | no significant reduction | significantly reduced | – | – | – | – | – | – | – | – | – | – | –
2 | COc1ccc(-c2cc(=O)c3c(OC)c(OC)c(OC)c(OC)c3o2)cc1OC [nobiletin] | – | – | – | – | – | – | significantly reduced | lower | smaller | significantly increased | significantly increased | no significant reduction | significantly reduced | significantly increased | significantly increased | no significant reduction | significantly reduced

Reference: patent US20180311204A1, “METHOD FOR PREVENTING OR TREATING HEART FAILURE” (GUANGZHOU MEDICAL UNIVERSITY, priority 2017, published 2018)
